Data: the NIST ThermoML archive (doi:10.1016/j.jct.2018.03.007)
Numbers after ± are expanded uncertainties.

How the values were obtained:
[1] = xn = mol fraction of the nth substance listed; details: 100 kPa, Liquid, x2 = 0; for speed of sound: Linear variable-path acoustic interferometer; for mass density: Vibrating tube method
[2] = 100 kPa, Liquid; for speed of sound: Linear variable-path acoustic interferometer; for mass density: Vibrating tube method

CCO [ethanol] + CCn1cc[n+](C)c1.O=S(=O)([O-])O
[1], Frequency=3 MHz
Details | speed of sound [m/s]
298.15 K | 1142.7 ± 1.5
303.15 K | 1125.3 ± 1.5
308.15 K | 1108.8 ± 1.5
313.15 K | 1091.5 ± 1.5

[1]
Details | mass density [kg/m3]
298.15 K | 785.26 ± 2
303.15 K | 780.98 ± 2
308.15 K | 776.66 ± 2
313.15 K | 772.28 ± 2

CCn1cc[n+](C)c1.O=S(=O)([O-])O [1-ethyl-3-methylimidazolium hydrogen sulfate]
[2], Frequency=2 MHz
Details | speed of sound [m/s]
298.15 K | 1982.8 ± 2.8
303.15 K | 1962.9 ± 2.8
308.15 K | 1943.1 ± 2.8
313.15 K | 1923.2 ± 2.8

[2]
Details | mass density [kg/m3]
298.15 K | 1365.75 ± 2.5
303.15 K | 1362.62 ± 2.5
308.15 K | 1359.53 ± 2.5
313.15 K | 1356.41 ± 2.5

C[S+](C)[O-] [dimethyl sulfoxide]
[2], Frequency=2 MHz
Details | speed of sound [m/s]
298.15 K | 1485 ± 1.7
303.15 K | 1468.3 ± 1.7
308.15 K | 1451.1 ± 1.7
313.15 K | 1434.2 ± 1.7

[2]
Details | mass density [kg/m3]
298.15 K | 1095.33 ± 2
303.15 K | 1090.32 ± 2
308.15 K | 1085.31 ± 2
313.15 K | 1080.29 ± 2

C[S+](C)[O-] [dimethyl sulfoxide] + CCn1cc[n+](C)c1.O=S(=O)([O-])O
[1], Frequency=2 MHz
Details | speed of sound [m/s]
298.15 K | 1485 ± 1.7
303.15 K | 1468.3 ± 1.7
308.15 K | 1451.1 ± 1.7
313.15 K | 1434.2 ± 1.7

[1]
Details | mass density [kg/m3]
298.15 K | 1095.33 ± 2
303.15 K | 1090.32 ± 2
308.15 K | 1085.31 ± 2
313.15 K | 1080.29 ± 2

CCCO [propan-1-ol]
[2], Frequency=2 MHz
Details | speed of sound [m/s]
298.15 K | 1206.1 ± 1.6
303.15 K | 1189.1 ± 1.6
308.15 K | 1172.2 ± 1.6
313.15 K | 1155.4 ± 1.6

[2]
Details | mass density [kg/m3]
298.15 K | 799.96 ± 2
303.15 K | 795.92 ± 2
308.15 K | 791.82 ± 2
313.15 K | 787.73 ± 2

CCCO [propan-1-ol] + CCn1cc[n+](C)c1.O=S(=O)([O-])O
[1], Frequency=2 MHz
Details | speed of sound [m/s]
298.15 K | 1206.1 ± 1.6
303.15 K | 1189.1 ± 1.6
308.15 K | 1172.2 ± 1.6
313.15 K | 1155.4 ± 1.6

[1]
Details | mass density [kg/m3]
298.15 K | 799.96 ± 2
303.15 K | 795.92 ± 2
308.15 K | 791.82 ± 2
313.15 K | 787.73 ± 2

CCO [ethanol]
[2], Frequency=3 MHz
Details | speed of sound [m/s]
298.15 K | 1142.7 ± 1.5
303.15 K | 1125.3 ± 1.5
308.15 K | 1108.8 ± 1.5
313.15 K | 1091.5 ± 1.5

[2]
Details | mass density [kg/m3]
298.15 K | 785.26 ± 2
303.15 K | 780.98 ± 2
308.15 K | 776.66 ± 2
313.15 K | 772.28 ± 2
